Test results taken from US9476870B2, “Methods and agents for screening for compounds capable of modulating gene expression” (PTC Therapeutics, Inc., priority 2003, dated 2016).
pEC50: −log10 of the molar value.

Columns and labels:
[1] = tested on: VEGF UTRs; assay: luciferase reporter inhibition in B9 (VEGF 5' and 3' UTRs) versus B12 (control UTRs) stable cell lines; format: cell-based, human; conditions: about 10^-1 nM to about 10^4 nM
Protocol: A monocistronic reporter construct (pLuc/vegf5′+3′UTR) is under the transcriptional control of the CMV promoter and contains the VEGF 5′ UTR driving the luciferase reporter upstream of the VEGF 3′UTR. Stable cell lines are generated by transfecting 293 cells with the pLuc/vegf5′+3′UTR construct. A stable cell line is cultured under hygromycin B selection to create clonal cell lines consistent with protocols well known in the art. After two weeks of selection, clonal cell lines are screened for luciferase activity. The luciferase activity of several clonal cell lines (hereafter “Clones”) are compared and normalized against total protein content. Clones are maintained under hygromycin B selection for more than three months with intermittent monitoring of luciferase activity. Clones are stable and maintain a high level of luciferase expression. Many Clones, for example, about twenty, may be compared to each other with respect to luciferase activity. […] Particular parameters for Clones are studied prior to selection for use in post-transcriptional, high-throughput screening (HTS). […]
Chemical libraries in excess of 150,000 compounds are screened by HTS with a Clone containing the monocistronic reporter construct, pLuc/vegf5′+3′UTR. […] Data is analyzed as a normal distribution, which is apparent from graphical and statistical analysis of skewness and kurtosis. […]

[2] = tested on: FGF-2 and IGF-1; assay: ELISA assays for expression of angiogenesis factors in HeLa cells; format: cell-based; conditions: Homo sapiens, read-out: EC50 for inhibition of all these cytokines
Protocol: Compounds that target multiple angiogenesis factors (including VEGF) for the treatment of cancers are also identifiable. Several targets are used for these purposes, including TNF-α, FGF-2, G-CSF, IGF-1, PDGF, and HIF-1α. ELISA assays analyze levels of expression of these factors using commercially available kits from R&D Systems (Minneapolis, Minn.). UTR-specific HTS identified compounds are tested for their ability to inhibit the expression of a subset of these proteins, including FGF-2 and IGF-1 in HeLa cells.

**Q.** With COc1ccc(C[C@H](N)C(=O)N[C@H]2[C@@H](O)[C@H](n3cnc4c(N(C)C)ncnc43)O[C@@H]2CO)cc1 [puromycin] as the molecule, how does the “difference in inhibition of luciferase expression between B9 and B12 cell lines” value [1] read?
**A.** No difference

**Q.** What about the pEC50 [2] of the same molecule?
**A.** 5.70 to 6.70
